Target: factor Xa (Bos taurus, UniProt P00743)
Assay: kinetic amidolytic
Type: biochemical

Sequence of factor Xa (P00743 41-180): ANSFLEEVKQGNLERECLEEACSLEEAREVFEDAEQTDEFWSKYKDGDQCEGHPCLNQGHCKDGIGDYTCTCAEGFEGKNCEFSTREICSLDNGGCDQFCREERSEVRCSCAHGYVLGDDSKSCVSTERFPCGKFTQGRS
Sequence of factor Xa (P00743 234-492): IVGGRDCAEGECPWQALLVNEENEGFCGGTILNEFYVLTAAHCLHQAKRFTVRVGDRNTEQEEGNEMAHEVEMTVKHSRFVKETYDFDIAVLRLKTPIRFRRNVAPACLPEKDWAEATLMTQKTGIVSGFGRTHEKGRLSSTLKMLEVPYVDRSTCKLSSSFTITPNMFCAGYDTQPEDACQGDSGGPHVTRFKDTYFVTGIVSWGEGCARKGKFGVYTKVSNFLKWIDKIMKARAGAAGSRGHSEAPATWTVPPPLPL

COc1ccc(NC(=O)c2ccc(C(=N)N(C)C)cc2)c(C(=O)Nc2ccc(Cl)cn2)c1 [Betrixaban]
IC50: 2880 nM

From PMC6714936 (Clinical and Applied Thrombosis/Hemostasis, 2019)
